Ten compounds from the NIST ThermoML archive (doi:10.1021/je0503857) can be followed below.

In general, vapor or sublimation pressure refers to the pressure of vapour in equilibrium with the condensed phase.

The structures appear in SMILES notation. ± gives the expanded uncertainty stated by the source.

Data set [1] in a line: Molar enthalpy of transition or fusion. The note with it: DSC.
A short description of data set [2]: molar heat capacity at constant pressure. To be noted: 298.15 K; 101.33 kPa; Crystal; Small sample (50 mg) DSC.
For data set [3] the following is noted: for Normal melting temperature: Crystal, DTA; for vapor or sublimation pressure: Liquid, Gas chromatography.

As to `CCCCCCCCCCCCCC(O)CCC` (configuration not stated) [4-heptadecanol], in data set [1] (Crystal), the “Molar enthalpy of transition or fusion” value worked out at 8.53 ± 0.239 kcal/mol. Further, the “molar heat capacity at constant pressure” value in data set [2] came out at 472.6 ± 9.5 J/K/mol. For the same compound, the Normal melting temperature in data set [3] stood at 38.4 ± 0.5 °C.
Turning to `CCCCCCCCCCCC(O)CCCCC` (configuration not stated) [6-heptadecanol], the “Molar enthalpy of transition or fusion” value in data set [1] (Crystal) came out at 11.7 ± 0.311 kcal/mol. In addition, the “molar heat capacity at constant pressure” value in data set [2] is listed as 472.6 ± 9.5 J/K/mol. Further, the “vapor or sublimation pressure” value in data set [3] (298.15 K) is on record as 1.813e-06 ± 1.9e-07 kPa; in data set [3] (300 K), 2.363e-06 ± 2.5e-07 kPa; in data set [3] (330 K) it was 0.0001082 ± 1.1e-05 kPa; in data set [3] (360 K), 0.002283 ± 0.00023 kPa; in data set [3] (390 K), 0.02614 ± 0.0026 kPa; in data set [3] (420 K) it was 0.1853 ± 0.019 kPa. In addition, the “vapor or sublimation pressure” value is 0.901 ± 0.09 kPa in data set [3] (450 K), 3.255 ± 0.33 kPa in data set [3] (480 K) and 9.287 ± 0.93 kPa in data set [3] (510 K). Moreover, the Normal melting temperature in data set [3] was found to be 42.7 ± 0.5 °C.
On to `CCCCCCCCCCCCCCCCCCCCCCO` [1-docosanol], for which the “Molar enthalpy of transition or fusion” value in data set [1] (Crystal) is 19.8 ± 0.526 kcal/mol. For the same compound, the “molar heat capacity at constant pressure” value in data set [2] is given as 625 ± 13 J/K/mol. The “vapor or sublimation pressure” value is 5.89e-07 ± 7.1e-08 kPa in data set [3] (330 K); 2.687e-05 ± 2.7e-06 kPa in data set [3] (360 K); 0.000588 ± 5.9e-05 kPa in data set [3] (390 K); 0.007063 ± 0.00071 kPa in data set [3] (420 K); 0.0523 ± 0.0052 kPa in data set [3] (450 K); 0.2627 ± 0.026 kPa in data set [3] (480 K). The “vapor or sublimation pressure” value in data set [3] (510 K) turned out to be 0.9664 ± 0.097 kPa. For the same compound, in data set [3], the Normal melting temperature was 71.4 ± 0.5 °C.
As for `CCCCCCCCCCCCCCCCCO` [1-heptadecanol], the “Molar enthalpy of transition or fusion” value in data set [1] (Crystal 2) came to 15.2 ± 0.406 kcal/mol. Besides, the “molar heat capacity at constant pressure” value in data set [2] was 490.5 ± 9.8 J/K/mol. Moreover, the “vapor or sublimation pressure” value in data set [3] (298.15 K) is listed as 6.86e-07 ± 7.9e-08 kPa; in data set [3] (300 K), 9.02e-07 ± 1e-07 kPa; in data set [3] (330 K), 4.724e-05 ± 4.8e-06 kPa; in data set [3] (360 K) it was 0.001125 ± 0.00011 kPa; in data set [3] (390 K), 0.01426 ± 0.0014 kPa; in data set [3] (420 K) it was 0.1098 ± 0.011 kPa. Moreover, the “vapor or sublimation pressure” value in data set [3] (450 K) worked out at 0.571 ± 0.057 kPa; in data set [3] (480 K), 2.174 ± 0.22 kPa; in data set [3] (510 K), 6.457 ± 0.65 kPa. The Normal melting temperature in data set [3] was 52.2 ± 0.5 °C.
As for `CCCCCCCCCCCCCCCCCCCCO` [1-eicosanol], the “Molar enthalpy of transition or fusion” value in data set [1] (Crystal 2) amounted to 18.7 ± 0.502 kcal/mol. Moreover, the “molar heat capacity at constant pressure” value in data set [2] is 571.2 ± 11 J/K/mol. Besides, the “vapor or sublimation pressure” value is reported as 3.215e-08 ± 1.3e-08 kPa in data set [3] (298.15 K); 4.345e-08 ± 1.4e-08 kPa in data set [3] (300 K); 3.509e-06 ± 3.6e-07 kPa in data set [3] (330 K); 0.0001228 ± 1.2e-05 kPa in data set [3] (360 K); 0.002151 ± 0.00021 kPa in data set [3] (390 K); 0.02156 ± 0.0022 kPa in data set [3] (420 K). The “vapor or sublimation pressure” value was found to be 0.1382 ± 0.014 kPa in data set [3] (450 K), 0.6201 ± 0.062 kPa in data set [3] (480 K) and 2.091 ± 0.21 kPa in data set [3] (510 K). The Normal melting temperature in data set [3] was 64 ± 1 °C.
With `CCCCCCCCCCCCCCCCCCCCCCCCCCO` [1-hexacosanol], the “Molar enthalpy of transition or fusion” value in data set [1] (Crystal) was 24.8 ± 0.645 kcal/mol. Besides, in data set [2], the “molar heat capacity at constant pressure” value is reported as 732.6 ± 15 J/K/mol. In addition, the “vapor or sublimation pressure” value came to 6.401e-11 kPa in data set [3] (298.15 K); 9.145e-11 kPa in data set [3] (300 K); 1.78e-08 ± 1.2e-08 kPa in data set [3] (330 K); 1.364e-06 ± 1.5e-07 kPa in data set [3] (360 K); 4.614e-05 ± 4.6e-06 kPa in data set [3] (390 K); 0.0007898 ± 7.9e-05 kPa in data set [3] (420 K). For the same compound, the “vapor or sublimation pressure” value in data set [3] (450 K) is 0.007756 ± 0.00078 kPa; in data set [3] (480 K) it was 0.0486 ± 0.0049 kPa; in data set [3] (510 K) it was 0.212 ± 0.021 kPa. The Normal melting temperature in data set [3] was 80.0 ± 0.5 °C.
For `CCCCCCCCC(O)CCCCCCCC` [9-heptadecanol], the “Molar enthalpy of transition or fusion” value in data set [1] (Crystal) came out at 10.3 ± 0.287 kcal/mol. The “molar heat capacity at constant pressure” value in data set [2] amounted to 472.6 ± 9.5 J/K/mol. Further, the “vapor or sublimation pressure” value came to 1.895e-06 ± 2e-07 kPa in data set [3] (298.15 K); 2.471e-06 ± 2.6e-07 kPa in data set [3] (300 K); 0.0001127 ± 1.1e-05 kPa in data set [3] (330 K); 0.002368 ± 0.00024 kPa in data set [3] (360 K); 0.02704 ± 0.0027 kPa in data set [3] (390 K); 0.1913 ± 0.019 kPa in data set [3] (420 K). Further, the “vapor or sublimation pressure” value in data set [3] (450 K) came to 0.929 ± 0.093 kPa; in data set [3] (480 K) it was 3.354 ± 0.34 kPa; in data set [3] (510 K) it was 9.568 ± 0.96 kPa. Further, the Normal melting temperature in data set [3] was 57.1 ± 0.5 °C.
Regarding `CC(C)CCC[C@@H](C)[C@H]1CC[C@H]2[C@@H]3CC=C4C[C@@H](O)CC[C@]4(C)[C@H]3CC[C@]12C` [.DELTA.5-cholesten-3β-ol], the “vapor or sublimation pressure” value was 7.557e-11 kPa in data set [3] (298.15 K); 1.065e-10 kPa in data set [3] (300 K); 1.71e-08 ± 1.2e-08 kPa in data set [3] (330 K); 1.132e-06 ± 1.2e-07 kPa in data set [3] (360 K); 3.397e-05 ± 3.4e-06 kPa in data set [3] (390 K); 0.0005237 ± 5.3e-05 kPa in data set [3] (420 K). Besides, the “vapor or sublimation pressure” value in data set [3] (450 K) was found to be 0.004678 ± 0.00047 kPa; in data set [3] (480 K), 0.02685 ± 0.0027 kPa; in data set [3] (510 K), 0.1078 ± 0.011 kPa.
Consider `CCCCCCCCCCCCCCCCCCO` [1-octadecanol], for which the “Molar enthalpy of transition or fusion” value in data set [1] (Crystal 2) was found to be 16.6 ± 0.43 kcal/mol. For the same compound, the “molar heat capacity at constant pressure” value in data set [2] was determined as 517.4 ± 10 J/K/mol. The Normal melting temperature in data set [3] came to 52.5 ± 5 °C.
Take `CCCCCCCCCCC(O)CCCCCC` (configuration not stated) [7-heptadecanol]: the “Molar enthalpy of transition or fusion” value in data set [1] (Crystal) is 6.88 ± 0.215 kcal/mol. In addition, the “molar heat capacity at constant pressure” value in data set [2] came to 472.6 ± 9.5 J/K/mol. The “vapor or sublimation pressure” value is recorded as 1.959e-06 ± 2.1e-07 kPa in data set [3] (298.15 K); 2.552e-06 ± 2.7e-07 kPa in data set [3] (300 K); 0.0001153 ± 1.2e-05 kPa in data set [3] (330 K); 0.002406 ± 0.00024 kPa in data set [3] (360 K); 0.0273 ± 0.0027 kPa in data set [3] (390 K); 0.192 ± 0.019 kPa in data set [3] (420 K). In addition, the “vapor or sublimation pressure” value in data set [3] (450 K) is recorded as 0.9282 ± 0.093 kPa; in data set [3] (480 K), 3.337 ± 0.33 kPa; in data set [3] (510 K), 9.481 ± 0.95 kPa. Also, the Normal melting temperature in data set [3] came to 41.2 ± 0.5 °C.
